Measurements published in article PMC10879502, “Linking ATP and allosteric sites to achieve superadditive binding with bivalent EGFR kinase inhibitors” (Communications Chemistry, 2024).
“And” between values parts separate entries of the source, which are not always exact repeats. Identical values can stand only once. Like-named read-outs stand apart in the source and are kept apart here. Blank lines part the entries; values can stand above or below the compound they belong to.

Assays:
[1] = target: T1, EGFR L858R (LR) kinase domain (Homo sapiens, UniProt P00533, L858R); experiment: HTRF KinEASE-TK kinase activity assay; type: biochemical
T1 construct: The EGFR kinase domain (residues 696–1022) was cloned into pTriEx; 6xHis (N, cleaved yes); GST (N, cleaved yes); made in house; host or cells: SF9 insect cells, baculovirus

MARK4 = target: T2, MARK4 (Homo sapiens, UniProt Q96L34); experiment: KINOMEscan; type: binding; conditions: 1 μM
T2 construct: purchased Eurofins DiscoverX Corporation

ZAK = ZAK (Homo sapiens, UniProt Q9NYL2); experiment: KINOMEscan; type: binding; conditions: 1 μM
Sequence of ZAK (Q9NYL2 whole entry): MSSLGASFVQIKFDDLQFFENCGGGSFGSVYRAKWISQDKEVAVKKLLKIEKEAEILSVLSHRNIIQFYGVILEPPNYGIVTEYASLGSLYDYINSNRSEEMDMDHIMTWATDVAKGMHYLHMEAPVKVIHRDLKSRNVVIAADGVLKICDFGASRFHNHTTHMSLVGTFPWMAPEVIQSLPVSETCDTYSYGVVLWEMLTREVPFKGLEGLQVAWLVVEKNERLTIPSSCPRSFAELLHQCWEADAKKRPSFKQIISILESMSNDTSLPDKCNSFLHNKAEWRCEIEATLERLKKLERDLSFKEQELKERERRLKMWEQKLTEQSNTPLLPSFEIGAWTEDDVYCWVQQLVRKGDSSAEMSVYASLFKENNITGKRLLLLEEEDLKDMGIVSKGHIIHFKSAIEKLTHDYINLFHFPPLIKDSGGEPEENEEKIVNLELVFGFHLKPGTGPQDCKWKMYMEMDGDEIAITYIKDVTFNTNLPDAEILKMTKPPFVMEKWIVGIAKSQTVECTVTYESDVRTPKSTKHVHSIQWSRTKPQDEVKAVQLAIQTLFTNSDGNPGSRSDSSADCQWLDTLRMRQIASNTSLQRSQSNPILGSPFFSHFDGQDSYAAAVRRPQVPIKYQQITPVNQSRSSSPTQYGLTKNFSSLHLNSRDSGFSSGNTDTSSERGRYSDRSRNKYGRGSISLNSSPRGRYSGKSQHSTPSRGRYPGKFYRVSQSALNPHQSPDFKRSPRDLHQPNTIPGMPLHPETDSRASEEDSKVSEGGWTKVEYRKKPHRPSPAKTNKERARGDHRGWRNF

SRC = SRC (Homo sapiens, UniProt P12931); experiment: KINOMEscan; type: binding; conditions: 1 μM
Sequence of SRC (P12931 whole entry): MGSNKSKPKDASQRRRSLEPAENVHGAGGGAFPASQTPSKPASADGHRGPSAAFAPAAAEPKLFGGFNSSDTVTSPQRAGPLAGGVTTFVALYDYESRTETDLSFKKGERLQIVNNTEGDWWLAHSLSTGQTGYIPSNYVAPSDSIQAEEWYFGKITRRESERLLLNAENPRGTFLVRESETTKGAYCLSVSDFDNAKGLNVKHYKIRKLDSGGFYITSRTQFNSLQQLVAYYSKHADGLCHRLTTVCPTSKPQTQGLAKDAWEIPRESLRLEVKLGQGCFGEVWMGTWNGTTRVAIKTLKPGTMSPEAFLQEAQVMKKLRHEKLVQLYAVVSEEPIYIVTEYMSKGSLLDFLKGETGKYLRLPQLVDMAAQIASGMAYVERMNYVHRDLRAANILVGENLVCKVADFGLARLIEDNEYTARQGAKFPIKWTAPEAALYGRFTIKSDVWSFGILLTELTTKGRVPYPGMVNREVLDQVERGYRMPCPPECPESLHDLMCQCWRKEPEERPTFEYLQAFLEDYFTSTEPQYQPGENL

BRK = target: T3, BRK (Homo sapiens, UniProt Q13882); experiment: KINOMEscan; type: binding; conditions: 1 μM
T3 construct: purchased Eurofins DiscoverX Corporation (KINOMEscan)

WNK3 = WNK3 (Homo sapiens, UniProt Q9BYP7); experiment: KINOMEscan; type: binding; conditions: 1 μM
BTK = target: T4, BTK (Homo sapiens, UniProt Q06187); experiment: KINOMEscan; type: binding; conditions: 1 μM
T4 construct: purchased Eurofins DiscoverX Corporation (KINOMEscan)

PIK3CA = PIK3CA (Homo sapiens, UniProt P42336); experiment: KINOMEscan; type: binding; conditions: 1 μM
BUB1 = target: T5, BUB1 (Homo sapiens, UniProt O43683); experiment: KINOMEscan; type: binding; conditions: 1 μM
T5 construct: purchased Eurofins DiscoverX Corporation (KINOMEscan)
T5 sequence (O43683 whole entry): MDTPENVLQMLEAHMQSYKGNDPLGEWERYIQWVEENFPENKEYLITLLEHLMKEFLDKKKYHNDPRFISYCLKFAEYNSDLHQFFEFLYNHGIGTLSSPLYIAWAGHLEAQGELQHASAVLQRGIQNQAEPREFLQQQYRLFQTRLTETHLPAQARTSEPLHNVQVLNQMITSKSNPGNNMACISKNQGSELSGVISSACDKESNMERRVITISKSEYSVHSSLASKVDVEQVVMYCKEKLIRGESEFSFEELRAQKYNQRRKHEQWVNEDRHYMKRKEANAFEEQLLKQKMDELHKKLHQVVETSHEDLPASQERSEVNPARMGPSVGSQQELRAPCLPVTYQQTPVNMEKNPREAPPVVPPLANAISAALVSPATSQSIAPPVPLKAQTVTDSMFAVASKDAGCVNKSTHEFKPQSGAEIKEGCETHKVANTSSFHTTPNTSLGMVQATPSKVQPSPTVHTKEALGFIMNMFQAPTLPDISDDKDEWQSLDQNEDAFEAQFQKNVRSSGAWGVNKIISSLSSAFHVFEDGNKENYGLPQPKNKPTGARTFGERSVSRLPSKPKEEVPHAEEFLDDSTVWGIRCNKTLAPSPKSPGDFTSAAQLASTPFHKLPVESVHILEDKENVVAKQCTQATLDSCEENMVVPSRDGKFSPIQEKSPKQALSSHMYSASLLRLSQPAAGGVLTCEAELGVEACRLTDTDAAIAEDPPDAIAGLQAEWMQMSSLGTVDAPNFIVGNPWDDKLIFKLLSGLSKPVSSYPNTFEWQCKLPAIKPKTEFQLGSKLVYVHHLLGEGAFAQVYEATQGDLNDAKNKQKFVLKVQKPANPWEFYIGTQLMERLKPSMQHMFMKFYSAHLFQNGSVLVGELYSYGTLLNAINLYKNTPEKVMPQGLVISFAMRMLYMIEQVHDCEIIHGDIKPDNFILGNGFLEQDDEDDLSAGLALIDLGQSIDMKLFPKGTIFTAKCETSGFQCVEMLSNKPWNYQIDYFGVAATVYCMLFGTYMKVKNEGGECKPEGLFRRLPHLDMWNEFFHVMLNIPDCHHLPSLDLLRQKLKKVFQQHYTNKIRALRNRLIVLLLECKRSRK

CDC2L1 = target: T6, CDC2L1 (Homo sapiens, UniProt P21127); experiment: KINOMEscan; type: binding; conditions: 1 μM
T6 construct: purchased Eurofins DiscoverX Corporation (KINOMEscan)

PDGFRB = PDGFRB (Homo sapiens, UniProt P09619); experiment: KINOMEscan; type: binding; conditions: 1 μM
PHKG2 = PHKG2 (Homo sapiens, UniProt P15735); experiment: KINOMEscan; type: binding; conditions: 1 μM
Sequence of PHKG2 (P15735 whole entry): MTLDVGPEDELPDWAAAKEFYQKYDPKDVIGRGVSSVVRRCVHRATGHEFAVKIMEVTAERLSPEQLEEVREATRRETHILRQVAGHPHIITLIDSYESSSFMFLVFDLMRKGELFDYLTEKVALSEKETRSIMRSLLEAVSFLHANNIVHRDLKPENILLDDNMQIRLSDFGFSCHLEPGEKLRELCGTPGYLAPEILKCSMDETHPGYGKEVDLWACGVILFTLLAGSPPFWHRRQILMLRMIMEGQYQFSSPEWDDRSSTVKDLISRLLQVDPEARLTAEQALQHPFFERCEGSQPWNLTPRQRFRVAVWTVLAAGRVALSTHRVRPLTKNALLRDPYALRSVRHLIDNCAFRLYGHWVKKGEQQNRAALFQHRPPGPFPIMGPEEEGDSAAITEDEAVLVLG

EPHB4 = EPHB4 (Homo sapiens, UniProt P54760); experiment: KINOMEscan; type: binding; conditions: 1 μM
NEK1 = target: T7, NEK1 (Homo sapiens, UniProt Q96PY6); experiment: KINOMEscan; type: binding; conditions: 1 μM
T7 construct: purchased Eurofins DiscoverX Corporation

TESK1 = target: T8, TESK1 (Homo sapiens, UniProt Q15569); experiment: KINOMEscan; type: binding; conditions: 1 μM
T8 construct: purchased Eurofins DiscoverX Corporation
T8 sequence (Q15569 whole entry): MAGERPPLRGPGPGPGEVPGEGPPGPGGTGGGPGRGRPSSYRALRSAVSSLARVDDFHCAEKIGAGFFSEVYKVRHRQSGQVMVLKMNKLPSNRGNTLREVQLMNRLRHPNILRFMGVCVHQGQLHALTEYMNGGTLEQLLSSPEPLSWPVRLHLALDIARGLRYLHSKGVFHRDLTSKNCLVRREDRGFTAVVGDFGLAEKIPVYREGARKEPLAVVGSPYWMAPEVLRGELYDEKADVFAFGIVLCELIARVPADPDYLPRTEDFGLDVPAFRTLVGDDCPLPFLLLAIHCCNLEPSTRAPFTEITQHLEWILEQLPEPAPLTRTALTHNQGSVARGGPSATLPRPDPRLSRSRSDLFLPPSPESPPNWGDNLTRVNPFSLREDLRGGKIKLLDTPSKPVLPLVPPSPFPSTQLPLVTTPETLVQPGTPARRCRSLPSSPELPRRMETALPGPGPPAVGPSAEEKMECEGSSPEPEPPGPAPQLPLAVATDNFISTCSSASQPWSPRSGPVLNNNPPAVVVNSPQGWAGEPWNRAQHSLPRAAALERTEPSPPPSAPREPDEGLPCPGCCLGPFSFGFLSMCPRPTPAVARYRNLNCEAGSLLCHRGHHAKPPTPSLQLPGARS

ERBB4 = ERBB4 (Homo sapiens, UniProt Q15303); experiment: KINOMEscan; type: binding; conditions: 1 μM
CDK3 = CDK3 (Homo sapiens, UniProt Q00526); experiment: KINOMEscan; type: binding; conditions: 1 μM
Sequence of CDK3 (Q00526 whole entry): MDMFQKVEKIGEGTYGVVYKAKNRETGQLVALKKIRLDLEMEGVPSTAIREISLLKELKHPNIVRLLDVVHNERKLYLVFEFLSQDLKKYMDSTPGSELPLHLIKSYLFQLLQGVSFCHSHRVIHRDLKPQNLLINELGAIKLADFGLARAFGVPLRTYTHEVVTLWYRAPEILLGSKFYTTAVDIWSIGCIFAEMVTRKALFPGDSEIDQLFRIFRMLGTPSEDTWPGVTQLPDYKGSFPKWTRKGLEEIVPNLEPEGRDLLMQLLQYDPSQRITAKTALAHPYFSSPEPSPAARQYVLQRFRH

MAP4K3 = target: T9, MAP4K3 (Homo sapiens, UniProt Q8IVH8); experiment: KINOMEscan; type: binding; conditions: 1 μM
T9 construct: purchased Eurofins DiscoverX Corporation
T9 sequence (Q8IVH8 whole entry): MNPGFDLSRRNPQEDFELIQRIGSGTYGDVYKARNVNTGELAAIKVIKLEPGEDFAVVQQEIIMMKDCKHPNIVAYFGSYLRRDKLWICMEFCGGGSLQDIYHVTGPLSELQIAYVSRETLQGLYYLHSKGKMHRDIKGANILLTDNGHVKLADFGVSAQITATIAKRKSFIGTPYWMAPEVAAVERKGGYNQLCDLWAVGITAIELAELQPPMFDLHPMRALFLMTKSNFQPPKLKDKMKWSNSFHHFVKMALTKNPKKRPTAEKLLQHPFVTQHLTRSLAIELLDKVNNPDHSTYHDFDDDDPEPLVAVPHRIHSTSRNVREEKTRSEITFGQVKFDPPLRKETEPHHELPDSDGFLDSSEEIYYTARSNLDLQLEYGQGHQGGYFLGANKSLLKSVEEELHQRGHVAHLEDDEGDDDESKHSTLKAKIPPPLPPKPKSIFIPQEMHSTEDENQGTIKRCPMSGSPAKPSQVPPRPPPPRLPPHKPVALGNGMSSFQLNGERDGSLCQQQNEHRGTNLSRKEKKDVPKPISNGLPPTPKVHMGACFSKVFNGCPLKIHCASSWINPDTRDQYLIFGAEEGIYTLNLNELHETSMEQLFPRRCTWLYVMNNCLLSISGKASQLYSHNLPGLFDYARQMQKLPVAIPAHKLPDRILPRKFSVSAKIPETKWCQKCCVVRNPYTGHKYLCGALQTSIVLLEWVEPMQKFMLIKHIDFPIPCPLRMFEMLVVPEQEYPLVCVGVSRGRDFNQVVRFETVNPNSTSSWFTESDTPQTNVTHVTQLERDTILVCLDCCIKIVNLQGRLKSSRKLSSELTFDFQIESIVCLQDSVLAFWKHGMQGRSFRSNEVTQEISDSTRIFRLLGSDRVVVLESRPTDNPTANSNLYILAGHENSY

CIT = CIT (Homo sapiens, UniProt O14578); experiment: KINOMEscan; type: binding; conditions: 1 μM
ERK2 = ERK2 (Homo sapiens, UniProt P28482); experiment: KINOMEscan; type: binding; conditions: 1 μM
NIM1 = NIM1 (Homo sapiens, UniProt Q8IY84); experiment: KINOMEscan; type: binding; conditions: 1 μM
PIM2 = PIM2 (Homo sapiens, UniProt Q9P1W9); experiment: KINOMEscan; type: binding; conditions: 1 μM
Sequence of PIM2 (Q9P1W9 whole entry): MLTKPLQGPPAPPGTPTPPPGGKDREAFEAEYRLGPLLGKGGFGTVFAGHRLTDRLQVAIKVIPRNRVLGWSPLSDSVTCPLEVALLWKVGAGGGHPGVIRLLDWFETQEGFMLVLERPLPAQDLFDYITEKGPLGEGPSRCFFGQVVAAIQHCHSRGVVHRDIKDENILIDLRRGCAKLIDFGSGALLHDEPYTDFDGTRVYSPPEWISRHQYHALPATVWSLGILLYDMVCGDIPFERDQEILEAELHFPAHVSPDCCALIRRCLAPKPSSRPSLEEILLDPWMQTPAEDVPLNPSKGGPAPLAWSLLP

[2] = target: RPS6KA5(Kin.Dom.1-N-terminal) (Homo sapiens, UniProt O75582); experiment: KINOMEscan; type: binding; conditions: 1 μM
[3] = system: EGFR phosphorylation (pY1068) in H3255GR (LRTM) cells; experiment: Western blot; type: cell-based, human; conditions: 6 h
Description: (§1) H1975, H3255, H3255GR and HCC827 lung adenocarcinoma cells (obtained from Dr. Pasi Jänne in Dana-Farber Cancer Institute, 2022) were cultured in RPMI 1640 media (Corning, 1004-CV) supplemented with 10% FBS (Tissue Culture Biologicals, 35-010-CV) and 1% penicillin-streptomycin (P/S, Corning, 30-002-CI). All cell lines were tested negative for Mycoplasma using Myco-Sniff-Rapid™ Mycoplasma Luciferase Detection Kit Plus PCR Primer Set (MP biomedicals, 0930504-CF) and were passaged and/or used for no longer than 4 weeks for all experiments H1975 and HCC-827 cells were seeded in 6-well plates with 400,000 cells per well and incubated overnight. H3255 and H3255GR cells were seeded in 12-well plates with 200,000 cells per well and were grown to confluency after 48 h. Culture medium was removed, cells washed with PBS, and lysed with lysis buffer containing 5 M NaCl, 1 M TRIS pH 8.0, 10% SDS, 10% Triton X-100 and a tablet of protease and phosphatase inhibitor. Protein lysate concentration was analyzed using Pierce BCA kit (ThermoFisher, 23225). Protein samples (10 µg) were resolved on hand-cast Criterion Tris-HCl protein gels. Primary antibodies used; phospho-EGFR (Tyr1068; #2234, 1:1,000), EGFR (#4267; 1:1,000), phospho-AKT (Ser473; #4060, 1:1,000), AKT (#9272, 1:1,000), phospho-ERK1/2 (Thr202/Tyr204; #4370, 1:1,000), and ERK1/2 (#4695, 1:1,000) antibodies; were purchased from Cell Signaling Technology. Secondary Goat anti-rabbit IgG starbright blue 700 (Biorad, 64484700) and Anti-tubulin hFAB Rhodamine Tubulin (Bio-Rad, 64512248). Western blots were visualized with the ChemiDoc MP imager (Bio-Rad) utilizing the Image Lab Touch Software (version 2.4.0.03). All Western blot images are representatives of at least 3 independent replicate experiments.

[4] = system: EGFR phosphorylation (pY1068) in H3255 (LR) cells; experiment: Western blot; type: cell-based, human; conditions: H3255, 6 h
Description: as §1

[5] = system: EGFR phosphorylation (pY1068) in HCC827 (exon19 delE746-A750) cells; experiment: Western blot; type: cell-based, human; conditions: HCC827, 6 h
Description: as §1

PAK1 = PAK1 (Homo sapiens, UniProt Q13153); experiment: KINOMEscan; type: binding; conditions: 1 μM

activity ([1]; LR, [Inhibitor] 1.3e-5 nM, read-out: percent inhibition): 93.5% and 92.2% and 100%
activity ([1]; LR, [Inhibitor] 3.18e-5 nM, read-out: percent inhibition): 90.3% (2×) and 95.9%
activity ([1]; LR, [Inhibitor] 7.78e-5 nM, read-out: percent inhibition): 71% and 67.2% and 70.8%
activity at 190.4 fM ([1]; LR, [Inhibitor] 0.000190441 nM, read-out: percent inhibition): 39.1%
activity at 466 fM ([1]; LR, [Inhibitor] 0.000465979 nM, read-out: percent inhibition): 22.7%
activity at 1.14 pM ([1]; LR, [Inhibitor] 0.00114018 nM, read-out: percent inhibition): 13.5%
activity at 2.79 pM ([1]; LR, [Inhibitor] 0.00278983 nM, read-out: percent inhibition): 8.55%
activity at 6.826 pM ([1]; LR, [Inhibitor] 0.00682626 nM, read-out: percent inhibition): 4.28%
activity at 16.7 pM ([1]; LR, [Inhibitor] 0.0167028 nM, read-out: percent inhibition): 1.88%
IC50 ([1]; enzyme 0.1 nM, ATP 100 µM, read-out: Biochemical EGFR IC50, LR): 1.5 ± 0.1 nM
SMILES: CSc1nc(-c2cccc(NC(=O)c3cccc4c3NC(=O)c3ccccc3N4)c2)c(-c2ccnc(NC(C)=O)c2)[nH]1 [Compound 2]

SMILES: C=CC(=O)Nc1ccc(OC)c(Nc2cc(-c3[nH]c(CC)nc3-c3cccc(NC(=O)c4cccc5c4NC(=O)c4ccccc4N5)c3)ccn2)c1 [Compound 4]
POC (MARK4): 92% of control
POC (ZAK): 87% of control
POC (SRC): 73% of control
POC (BRK): 96% of control
POC (WNK3): 78% of control
POC (BTK): 54% of control
POC (PIK3CA): 70% of control
POC (BUB1): 100% of control
POC (CDC2L1): 100% of control
POC (PDGFRB): 100% of control
POC (PHKG2): 73% of control
POC (EPHB4): 100% of control
POC (NEK1): 90% of control
POC (TESK1): 94% of control
POC (ERBB4): 4.9% of control
POC (CDK3): 100% of control
POC (MAP4K3): 9.5% of control
POC (CIT): 6.3% of control
POC (ERK2): 100% of control
POC (NIM1): 78% of control
POC (PIM2): 88% of control
POC [2]: 83% of control
suppression of EGFR pY1068 phosphorylation [3]: analogous suppression of EGFR pY1068 phosphorylation
suppression of EGFR pY1068 phosphorylation [4]: analogous suppression of EGFR pY1068 phosphorylation
suppression of EGFR pY1068 phosphorylation [5]: analogous suppression of EGFR pY1068 phosphorylation
POC (PAK1): 100% of control
